Results: ChEMBL document CHEMBL4251550, “Applications of parallel synthetic lead hopping and pharmacophore-based virtual screening in the discovery of efficient glycine receptor potentiators” (Eur J Med Chem, 2017)
In brackets after ≈: the same amount, converted by molar mass.

Columns and labels:
[1] = Solubility of compound in FaSSIF; format: physicochemical
[2] = Apparent permeability in MDCK cells; format: ADME, cell-based, Canis lupus familiaris; conditions: dog
[3] = Volume of distribution at steady state in CD1 mouse at 1 mg/kg, iv; format: ADME, organism-based; conditions: in vivo, read-out: Vdss

Row | Compound | solubility [1] [µM] | Papp [2] [×10⁻⁶ cm/s] | Vd [3] [L/kg]
1 | CN1C(=O)[C@@H]2CN(S(=O)(=O)c3ccc4c(c3)OCO4)C[C@@H]2c2ccccc21 | < 1 | 44 | 
2 | COc1ccccc1OC1CN(S(=O)(=O)c2ccc3c(c2)OCO3)C1 | 102 (≈ 37.1 µg/mL) | 44 | 
3 | COc1ccc(Cl)cc1OC1CN(S(=O)(=O)c2ccc3[nH]c(=O)oc3c2)C1 | 96 (≈ 39.4 µg/mL) | 39 | 1.4
4 | O=S(=O)(c1ccc2c(c1)OCO2)N1CC[C@@H](c2ccccc2F)C1 | 17 (≈ 5.94 µg/mL) | 28 | 
